The values that follow are results of earlier work, collected in publication PMC7148434, “ACE-domain selectivity extends beyond direct interacting residues at the active site” (Biochemical Journal, 2020).

Data set [1] concerns nACE. The following applies: cited from earlier work.
The target in data set [2] is nACE (Homo sapiens, UniProt P12821). Set-up: The truncated (single domain) wild-type N-domain (nACE), wild-type C-domain (cACE) and N-domain mutant constructs; made in house; host or cells: CHO-K1. The following applies: nACE; ref Lubbe et al. [23]; cited from earlier work.
Chain of nACE (Homo sapiens, UniProt P12821) (P12821 40-624 limits assumed): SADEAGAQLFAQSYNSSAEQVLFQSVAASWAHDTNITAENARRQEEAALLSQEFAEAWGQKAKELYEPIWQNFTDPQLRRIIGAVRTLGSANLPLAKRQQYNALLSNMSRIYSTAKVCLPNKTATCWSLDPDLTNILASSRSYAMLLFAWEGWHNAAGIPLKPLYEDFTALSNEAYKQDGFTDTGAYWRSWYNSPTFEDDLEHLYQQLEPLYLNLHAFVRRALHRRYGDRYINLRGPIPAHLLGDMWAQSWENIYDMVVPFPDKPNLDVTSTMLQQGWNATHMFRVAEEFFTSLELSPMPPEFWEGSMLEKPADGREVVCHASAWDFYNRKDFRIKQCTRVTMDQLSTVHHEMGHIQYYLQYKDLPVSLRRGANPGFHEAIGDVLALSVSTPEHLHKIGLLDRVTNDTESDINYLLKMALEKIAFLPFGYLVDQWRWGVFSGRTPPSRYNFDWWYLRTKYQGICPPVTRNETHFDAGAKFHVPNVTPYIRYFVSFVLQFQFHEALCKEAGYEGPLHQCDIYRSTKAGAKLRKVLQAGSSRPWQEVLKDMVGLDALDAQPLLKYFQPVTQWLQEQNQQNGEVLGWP
Data set [3] addresses S′-nACE (S260T, E262S, D354E, S357V, T358V and E431D) (Homo sapiens, UniProt P12821, D383E/E291S/E460D/S289T/S386V/T387V). Set-up: The truncated (single domain) wild-type N-domain (nACE), wild-type C-domain (cACE) and N-domain mutant constructs; made in house; host or cells: CHO-K1. The following applies: cited from earlier work.
In data set [4] the target is S2-nACE (Y369F and R381E) (Homo sapiens, UniProt P12821, R410E/Y398F). Set-up: The truncated (single domain) wild-type N-domain (nACE), wild-type C-domain (cACE) and N-domain mutant constructs; made in house; host or cells: CHO-K1. To be noted: cited from earlier work.
Chain of S2-nACE (Y369F and R381E) (P12821 40-624 Y398F/R410E): as the sequence (P12821 40-624 limits assumed) above, with Y359F, R371E counted along it
The target of data set [5] is S2_S′-nACE (S260T, E262S, D354E, S357V, T358V, Y369F, R381E and E431D) (Homo sapiens, UniProt P12821, D383E/E291S/E460D/R410E/S289T/S386V/T387V/Y398F). Also noted: The truncated (single domain) wild-type N-domain (nACE), wild-type C-domain (cACE) and N-domain mutant constructs; made in house; host or cells: CHO-K1. The following applies: cited from earlier work.
Chain of S2_S′-nACE (S260T, E262S, D354E, S357V, T358V, Y369F, R381E and E431D) (P12821 40-624 S289T/E291S/D383E/S386V/T387V/Y398F/R410E/E460D): as the sequence (P12821 40-624 limits assumed) above, with S250T, E252S, D344E, S347V, T348V, Y359F, R371E, E421D counted along it
Another data set deals with cACE (Homo sapiens, UniProt P12821). Also noted: The truncated (single domain) wild-type N-domain (nACE), wild-type C-domain (cACE) and N-domain mutant constructs; made in house; host or cells: CHO-K1; method as in Lubbe et al. [23]. To be noted: ref Lubbe et al. [23]; cited from earlier work.
Chain of cACE (P12821 643-1222 limits assumed): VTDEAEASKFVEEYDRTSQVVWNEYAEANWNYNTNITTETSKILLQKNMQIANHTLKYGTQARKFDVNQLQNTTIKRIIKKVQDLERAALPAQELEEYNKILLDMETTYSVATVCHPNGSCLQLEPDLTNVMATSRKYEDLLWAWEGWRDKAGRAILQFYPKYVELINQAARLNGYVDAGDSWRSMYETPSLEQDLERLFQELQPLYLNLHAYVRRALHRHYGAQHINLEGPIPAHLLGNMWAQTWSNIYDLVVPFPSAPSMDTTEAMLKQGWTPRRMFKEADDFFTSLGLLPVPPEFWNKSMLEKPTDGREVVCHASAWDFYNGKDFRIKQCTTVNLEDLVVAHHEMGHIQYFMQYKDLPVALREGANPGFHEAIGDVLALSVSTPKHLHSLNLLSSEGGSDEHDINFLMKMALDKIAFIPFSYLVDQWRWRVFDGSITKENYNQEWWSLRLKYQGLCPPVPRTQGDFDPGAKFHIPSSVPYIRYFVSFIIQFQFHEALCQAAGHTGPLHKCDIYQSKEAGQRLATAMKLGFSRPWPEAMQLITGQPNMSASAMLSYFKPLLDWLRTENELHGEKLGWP

“And” between values parts separate entries of the source, which are not always exact repeats. Equal values may be shown once.

Chain of S′-nACE (S260T, E262S, D354E, S357V, T358V and E431D) (P12821 40-624 S289T/E291S/D383E/S386V/T387V/E460D): as the sequence (P12821 40-624 limits assumed) above, with S250T, E252S, D344E, S347V, T348V, E421D counted along it

The Ki is a measure of affinity in units of concentration, obtained from inhibition or displacement. For the molecule `C[C@H](CP(=O)(O)[C@H](Cc1ccccc1)NC(=O)C(N)Cc1nnn[nH]1)C(=O)N[C@@H](C)C(N)=O` (stereo partly drawn) [33RE], the “Selectivity (Ki cACE/Ki nACE or mutant)” value was 1000 and 1006 with nACE [1] (Ki cACE / Ki nACE (N-selectivity), ref Lubbe et al. [23]); 48 in data set [3] (Ki cACE / Ki S′-nACE, ref Lubbe et al. [23]); 4 in data set [4] (Ki cACE / Ki S2-nACE, ref Lubbe et al. [23]); 1.1 in data set [5] (Ki cACE / Ki S2_S′-nACE, ref Lubbe et al. [23]); 1 on cACE. The “selectivity over cACE” value in the data set with nACE [1] (nACE over cACE, previous kinetic studies) is recorded as about 1000 fold. Further, the Ki on nACE [2] was 11.2 ± 0.735 nM; in data set [3] (S′-nACE, ref Lubbe et al. [23]) it was 237 ± 13.6 nM; in data set [4] (S2-nACE, ref Lubbe et al. [23]), 2790 ± 156 nM. Also, the “decrease in binding affinity compared with nACE” value in data set [3] (S′-nACE relative to nACE) is 22 fold; in data set [4] (S2-nACE relative to nACE), 254 fold; in data set [5] (S2_S′-nACE relative to nACE) it was 900 fold.
